The values below come from patent US9107814B2, “Micelle composition of polymer and passenger drug” (Wisconsin Alumni Research Foundation, priority 2005, dated 2015).

Where two headings read alike, the source gives them in different places.

For data set [1] the following is noted: cited from earlier work.
For data set [2] the following is noted: cited from earlier work. This is another data set of the same source.
Data set [3] can be described thus: paclitaxel prodrug loading and sizing of PEG-b-PCL micelles. Format: physicochemical. Particulars: for Solubilized / prodrug w/w % / prodrug:caprolactone: 20% w/w prodrug loading in 0.5-mM PEG-b-PCL micelles; for Diameter (intensity): DLS, PEG-PCL micelles prepared at 20% w/w drug; for Solubilized (in parentheses): after evaporation to 25% of original volume and refiltration (0.22-μm). Here is the method: The organic solvent was then removed by stirring under an air purge. Where stated, samples were further concentrated by prolonged evaporation under an air purge. After removing the organic solvent, PEG-b-PCL micelles were passed through a 0.22-μm polyestersulfone filter to remove insoluble material and unincorporated drug. In a typical experiment, […] of PEG-b-PCL was dissolved in 0.75 ml of dry acetone and added dropwise (50 μL/min) to 2 ml of ddH2O yielding 0.5-mM PEG-b-PCL micelles after removing the volatile organic solvent.
The incorporation of prodrugs into PEG-b-PCL micelles was verified by equivalent retention times in UV and RI chromatographs from gel permeation chromatography. PEG-b-PCL micelles were injected on an OHpak SB-806M GPC column (20-μL injections, 0.5-mM PEG-b-PCL, 0.75 ml/min of ddH2O, 10° C.) (Shodex, Kawasaki, Japan) and detected by refractive index (RI) and UV absorbance (232 nm). Prodrug loading into PEG-b-PCL micelles was quantitatively determined by reverse-phase HPLC (Alltech Econosphere 3-μm 4.6×50 mm) using a 0.01% (v/v) trifluoroacetic acid—ACN gradient (40-100% ACN, 50° C., 232-nm detection). Hydrodynamic diameters of PEG-b-PCL micelles were determined by dynamic light scattering (DLS) (NICOMP 380 ZLS, Particle Sizing Systems, Santa Barbara, Calif.). Data were analyzed by intensity-weighted Gaussian distribution fitting (NICOMP version 1.76). Measurements were made for a minimum of 10 min or at least 100×10^5 counts in channel 1.

Data set [4] in a line: octanol-water partition coefficient by microemulsion electrokinetic chromatography (MEEKC). Particulars: for log Po/w: pH 7.00 running buffer, ± standard deviation (n = 3).
Protocol: (§1) The octanol-water partition coefficient of geldanamycin was determined by microemulsion electrokinetic chromatography.
(§2) Running buffer was prepared by titration of 25-mM sodium phosphate monobasic with 50-mM sodium tetraborate to pH 7.00, and 1.44 g of sodium dodecyl sulfate, 6.49 g of 1-butanol, and 0.82 g of heptane were made up to 100 ml with phosphate-borate buffer. The running buffer was ultrasonicated for 30 min in a closed 250-ml flask in ice water (G112SP1 Special Ultrasonic Cleaner, Laboratory Supplies Company Inc., Hicksville, N.Y.). […] Compounds and standards (n=3) were dissolved in the running buffer (0.05 mg/ml) with 0.5 μL/ml of nitromethane and 0.5 μL/ml of 1-phenyldodecane by ultrasonication (10 min) in a closed tube and centrifuged (16000×g, 3 min) to degas. A BioFocus 3000 capillary electrophoresis system (Bio-Rad, Hercules, Calif.) equipped with a 50-μm ID×37-cm uncoated fused-silica column (Polymicron Technologies LLC, Phoenix, Ariz.) was used for MEEKC experiments. The column was prewashed with 1-M NaOH for 5 min and before runs with 0.1-M NaOH for 1 min, ddH2O for 1 min, and running buffer for 1 min at 100 psi (690 kPa). Running conditions were 10 kV (ca. 30-35 μA, 30 min/run) at 20° C. with 1-psi·s injections (6.9 kPa·s) and detection at 210 and 232 nm. Log Po/w and retention factors, k′, were calculated using the equations:
(§3) [formula] [formula] where tr, t0, and tme are retention times of the prodrug, nitromethane, and 1-phenyldodecane, respectively. Fitting parameters a and b were determined by linear regression of known standards: pyridine, phenol, benzoic acid, anisole, benzene, toluene, dodecanoic acid, benzopyrene, and pyrene (R^2=0.996, Excel® 2003, Microsoft Corp.).
For data set [5], the system named is MDA-MB-468 breast cancer cell line. The data set is described as follows: MTS cytotoxicity assay. It counts as cell-based. Particulars: MDA-MB-468, 4 days, drugs in 1% DMSO. Here is the method: Cytotoxicities of the drugs to the MDA-MB-468 breast cancer cell line (ATCC) were determined. Cells are plated at a density of 3000 cells/well into 96 well plates (100 μl/well DMEM medium). After 24 hours, drugs were added dissolved in 1% DMSO. Cells were incubated with drugs for 4 days and toxicity determined using the MTS cytotoxicity assay according to manufacturer's directions (Promega, Madison, Wis.).
In general terms: Tetrazolium assays rely on reduction of a dye to a coloured formazan, in cell work by metabolically active cells.

Data set [6] in a line: geldanamycin prodrug loading into and release from PEG-b-PCL micelles. Format: physicochemical. Particulars: for Diff Coef: 0.5 mM PEG-b-PCL (5000:10000 Da) micelles, pH 7.4 phosphate buffer, 37° C., 10000MWCO dialysis; for w/w drug/carrier / Conc: 0.5 mM PEG-b-PCL micelles; for w/w drug/carrier: target 25% wt loading; for Conc: target […]; for time after which almost/substantially all the drug is released: prodrug loaded micelles; for fraction released: prodrug in micelles. The protocol:
Drug diffusion was calculated as described in Forrest and Kwon, 2005 (Journal of Controlled Release).
PEG-PCL micelles are prepared by the drop-wise addition of geldanamycin prodrug and PEG-PCL dissolved in a miscible solvent, acetone, to vigorously stirred water, followed by removal of the solvent by N2 purge, and 0.2-μm filtration. Alternatively, the solution may be centrifuged to remove unincorporated and aggregated drug. The final solvent to water ratio is between about 0.1 and about 5, preferably between about 0.5 and about 4, and more preferably about 2. The micelle solution should be delivered at a rate of between about 2 s/drop and about 60 s/drop, preferably between about 5 s/drop and about 30 s/drop, and more preferably between about 10 s/drop and about 20 s/drop.

Another data set in a line: physchem. Particulars: pH 7.

Protocol for physchem: as §1, §2, §3

For `C=CCNC1=C2C[C@@H](C)C[C@H](OC)[C@H](O)[C@@H](C)/C=C(\C)[C@H](OC(N)=O)[C@@H](OC)/C=C\C=C(/C)C(=O)NC(=CC1=O)C2=O` [Prodrug 17-AAG], the dose limiting toxicity result in data set [1] (Phase I) is “GI toxicity to be dose limiting”. Besides, the “suggested Phase II dosing” value in data set [1] (from Phase I results) is given as 40 mg/m^2. In addition, the MTD dog in data set [2] (in vivo) was 500 mg/m^2.

As for `CCCCCCCCCCCCCCCC(=O)O[C@@H](C(=O)O[C@H]1C[C@@]2(O)[C@@H](OC(=O)c3ccccc3)[C@@H]3[C@]4(OC(C)=O)CO[C@@H]4C[C@H](O)[C@@]3(C)C(=O)[C@H](OC(C)=O)C(=C1C)C2(C)C)[C@@H](NC(=O)c1ccccc1)c1ccccc1` [Prodrug 5c, 2-palmitate-paclitaxel], in data set [3], the Solubilized was determined as 1.85 ± 0.05 mg/mL, the prodrug w/w % was determined as 19.8%, the “prodrug:caprolactone” value is 40.0 mmol:mol and the “Diameter (intensity)” value turned out to be 37 ± 6 nm. Besides, the “Solubilized (in parentheses)” value in data set [3] was more than 3 mg/mL. The “log Po/w” value in data set [4] was determined as 4.51 ± 0.04.

For the compound `CCCCCCCCCCCC(=O)O[C@H]1C[C@H]2OC[C@@]2(OC(C)=O)[C@H]2[C@H](OC(=O)c3ccccc3)[C@]3(O)C[C@H](OC(=O)[C@H](O)[C@@H](NC(=O)c4ccccc4)c4ccccc4)C(C)=C([C@@H](OC(C)=O)C(=O)[C@]12C)C3(C)C` [Prodrug 4b], in data set [3], the Solubilized is 1.47 ± 0.03 mg/mL, the prodrug w/w % was determined as 16.4%, the “prodrug:caprolactone” value is on record as 31.8 mmol:mol and the “Diameter (intensity)” value is listed as 27 ± 5 nm. Further, the “Solubilized (in parentheses)” value in data set [3] was determined as 2.2 ± 0.5 mg/mL. Besides, the “log Po/w” value in data set [4] is recorded as 4.59 ± 0.18.

As for `CCCCCC(=O)OCCNC1=C2CC(C)CC(OC)C(O)C(C)C=C(C)C(OC(N)=O)C(OC)C=CC=C(C)C(=O)NC(=CC1=O)C2=O` (stereo not shown) [17-aminoethyl-hexonate-17-demethoxygeldanamycin], the IC50 (usually the concentration needed to halve the response being measured) in data set [5] is 240 nM.

As for `CCCCCCCCCCCCCCCCNC1=C2CC(C)CC(OC)C(O)C(C)C=C(C)C(OC(N)=O)C(OC)C=CC=C(C)C(=O)NC(=CC1=O)C2=O` (stereo not shown) [17-amino-hexyldecyl-17-demethoxygeldanamycin], the “Diff Coef” value in data set [6] is 1.69 × 10^−20 cm2/s. For the same compound, the w/w drug/carrier in data set [6] is listed as 20 ± 2%. The Conc in data set [6] came to 1500 µg/mL. Further, in data set [6], the “time after which almost/substantially all the drug is released” value is recorded as “about 12 days”. Besides, the fraction released in data set [6] (time 0 days) came out at 0; in data set [6] (time 0.83 days) it was 0; in data set [6] (time 2 days) it was 0.1398; in data set [6] (time 4 days), 0.3551; in data set [6] (time 6 days) it was 0.3985; in data set [6] (time 8 days), 0.6364. The fraction released stood at 0.7517 in data set [6] (time 10 days) and 0.8238 in data set [6] (time 12 days). Moreover, the “Log Po/w” value in data set [4] is listed as 4.30.

For `CCCCCC(=O)O[C@H]1C[C@H]2OC[C@@]2(OC(C)=O)[C@H]2[C@H](OC(=O)c3ccccc3)[C@]3(O)C[C@H](OC(=O)[C@H](O)[C@@H](NC(=O)c4ccccc4)c4ccccc4)C(C)=C([C@@H](OC(C)=O)C(=O)[C@]12C)C3(C)C` [Prodrug 4a], in data set [3], the Solubilized came to 1.55 ± 0.04 mg/mL, the prodrug w/w % worked out at 17.1%, the “prodrug:caprolactone” value was 36.5 mmol:mol and the “Diameter (intensity)” value was determined as 34 ± 4 nm. For the same compound, in data set [3], the “Solubilized (in parentheses)” value was found to be 5.1 ± 0.5 mg/mL. In addition, the “log Po/w” value in data set [4] came out at 4.43 ± 0.06.

Turning to `CCCCCCCCCCCCCCCC(=O)OCCNC1=C2CC(C)CC(OC)C(O)C(C)C=C(C)C(OC(N)=O)C(OC)C=CC=C(C)C(=O)NC(=CC1=O)C2=O` (stereo not shown) [17-aminoethyl-palmitate-17-demethoxygeldanamycin], the “Diff Coef” value in data set [6] is recorded as 3.61 × 10^−20 cm2/s. Further, in data set [6], the w/w drug/carrier turned out to be 22 ± 5%. In addition, the Conc in data set [6] worked out at 1700 µg/mL. In addition, the “time after which almost/substantially all the drug is released” value in data set [6] is reported as “about 8 days”. Further, the fraction released is 0 in data set [6] (time 0 days); 0.1695 in data set [6] (time 0.83 days); 0.2916 in data set [6] (time 2 days); 0.6116 in data set [6] (time 4 days); 0.9528 in data set [6] (time 8 days). For the same compound, half-maximal inhibition in data set [5] (IC50) required 350 nM.

Regarding `CCCCCCCCCCCC(=O)OC(C(=O)OC1CC2(O)C(OC(=O)c3ccccc3)C3C4(OC(C)=O)COC4CC(O)C3(C)C(=O)C(OC(C)=O)C(=C1C)C2(C)C)C(NC(=O)c1ccccc1)c1ccccc1` (stereo not shown) [Prodrug 5b], in data set [3], the Solubilized was found to be 1.57 ± 0.02 mg/mL, the prodrug w/w % was determined as 17.3%, the “prodrug:caprolactone” value is reported as 34.0 mmol:mol and the “Diameter (intensity)” value came out at 28 ± 0 nm. For the same compound, the “Solubilized (in parentheses)” value in data set [3] was more than 3 mg/mL. For the same compound, in data set [4], the “log Po/w” value is on record as 4.49 ± 0.03.

With `CCCCCC(=O)O[C@@H](C(=O)O[C@H]1C[C@@]2(O)[C@@H](OC(=O)c3ccccc3)[C@@H]3[C@]4(OC(C)=O)CO[C@@H]4C[C@H](O)[C@@]3(C)C(=O)[C@H](OC(C)=O)C(=C1C)C2(C)C)[C@@H](NC(=O)c1ccccc1)c1ccccc1` [Prodrug 5a], in data set [3], the Solubilized came to 1.42 ± 0.11 mg/mL, the prodrug w/w % is given as 17.8%, the “prodrug:caprolactone” value is 33.4 mmol:mol and the “Diameter (intensity)” value is reported as 32 ± 0 nm. The “Solubilized (in parentheses)” value in data set [3] is more than 3 mg/mL. Also, the “log Po/w” value in data set [4] is reported as 4.45 ± 0.03.

Consider `CCCCCCCCCCCC(=O)OCCNC1=C2CC(C)CC(OC)C(O)C(C)C=C(C)C(OC(N)=O)C(OC)C=CC=C(C)C(=O)NC(=CC1=O)C2=O` (stereo not shown) [17-aminoethyl-dodeconate-17-demethoxygeldanamycin], for which the “Diff Coef” value in data set [6] was 2.55 × 10^−20 cm2/s. Moreover, the w/w drug/carrier in data set [6] came out at 21 ± 2%. Further, in data set [6], the Conc was determined as 1600 µg/mL. Besides, the “time after which almost/substantially all the drug is released” value in data set [6] is reported as “about 8 days”. Moreover, the fraction released in data set [6] (time 0 days) was 0; in data set [6] (time 0.83 days), 0.1688; in data set [6] (time 2 days), 0.2909; in data set [6] (time 4 days), 0.3431; in data set [6] (time 6 days), 0.8531; in data set [6] (time 8 days) it was 0.9878. In addition, the “Log Po/w” value in data set [4] was determined as 4.16.

In data set [5], `COC1C=CC=C(C)C(=O)NC2=CC(=O)C(NCCO)=C(CC(C)CC(OC)C(O)C(C)C=C(C)C1OC(N)=O)C2=O` (stereo not shown) [17-hydroxyethylamino-17-demethoxygeldanamycin, reference compound] displayed an IC50 of 73 nM.

Consider `CCCCCCCCCCCCCCCC(=O)O[C@H]1C[C@H]2OC[C@@]2(OC(C)=O)[C@H]2[C@H](OC(=O)c3ccccc3)[C@]3(O)C[C@H](OC(=O)[C@H](O)[C@@H](NC(=O)c4ccccc4)c4ccccc4)C(C)=C([C@@H](OC(C)=O)C(=O)[C@]12C)C3(C)C` [Prodrug 4c, 7-palmitate-paclitaxel], for which, in data set [3], the Solubilized turned out to be 1.62 ± 0.03 mg/mL, the prodrug w/w % turned out to be 21.6%, the “prodrug:caprolactone” value is on record as 33.3 mmol:mol and the “Diameter (intensity)” value is on record as 44 ± 2 nm. Also, the “Solubilized (in parentheses)” value in data set [3] is 3.0 ± 0.9 mg/mL. Also, the “log Po/w” value in data set [4] is given as 4.48 ± 0.06.

In the case of `CO[C@H]1/C=C\C=C(/C)C(=O)NC2=CC(=O)C(NCCN(C)C)=C(C[C@@H](C)C[C@H](OC)[C@H](O)[C@@H](C)/C=C(\C)[C@@H]1OC(N)=O)C2=O` [Prodrug 17DMAG], the MTD dog in data set [2] is given as 8 mg/m^2.

`CC(=O)O[C@H]1C(=O)[C@@]2(C)[C@H]([C@H](OC(=O)c3ccccc3)[C@]3(O)C[C@H](OC(=O)[C@H](O)[C@@H](NC(=O)c4ccccc4)c4ccccc4)C(C)=C1C3(C)C)[C@]1(OC(C)=O)CO[C@@H]1C[C@@H]2O` [Paclitaxel, reference compound]: in data set [3], the Solubilized is less than 0.2 mg/mL and the “prodrug:caprolactone” value is recorded as <1 mmol:mol. Also, the chromatographic logP (as a rule, lipophilicity estimated from chromatographic retention) in “physchem” is 4.4 ± 0.06.
